Test systems include BT-549; EKVX; HOP-92; K562; KM12; MCF7; MDA-MB-231; MDA-MB-435; MDA-N; NCI-H226; OVCAR-5; SF-268; SF-539; SK-MEL-28; SK-MEL-5; SK-OV-3; U-251; LOX IMVI; Malme-3M; T47D.
What all share (experiment): DTP human tumour cell line panel, 48 h

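48-hour exposure; five concentrations; linearly interpolated endpoints. GI50 marks 50% less growth.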 Active and inactive are the calls of the source. Cut-off read from the data, not from the text of the source: active = GI50 up to about 1.1 µM and inactive = higher. Some results are limits rather than exact numbers.

One may read the GI50 as the concentration giving 50% growth inhibition. For the compound `NC(CCC(=O)NC(CSC(=O)N(O)c1ccc(Cl)cc1)C(=O)NCC(=O)O)C(=O)O` (stereo unspecified), the GI50 in the experiment on BT-549, in the experiment on EKVX, with HOP-92, in the experiment on K562, in the experiment on KM12 and with MCF7 was > 0.5 µM (active) each time. Further, the concentration for 50% growth inhibition (GI50) in the experiment with MDA-MB-231, with MDA-MB-435, in the experiment on MDA-N, in the experiment on NCI-H226, with OVCAR-5 and with SF-268 was > 0.5 µM (active) in each case. The GI50 with SF-539, in the experiment with SK-MEL-28, with SK-MEL-5, with SK-OV-3 and in the experiment on U-251 was > 0.5 µM (active) throughout.
For `CC(Cn1c(=O)oc2ccccc21)N(C)C` (stereo unspecified), the GI50 in the experiment on BT-549, in the experiment on EKVX, with K562, with KM12, with LOX IMVI and in the experiment with MCF7 was > 100 µM (inactive) each time. Further, the GI50 with MDA-MB-231, in the experiment on MDA-MB-435, in the experiment with MDA-N, in the experiment on Malme-3M, in the experiment with NCI-H226 and with OVCAR-5 was > 100 µM (inactive) in each case. Further, the GI50 with SF-268, in the experiment with SF-539, in the experiment with SK-MEL-28, in the experiment with SK-MEL-5, with SK-OV-3 and with U-251 was > 100 µM (inactive) in each case.
`OCCN(C1=NCCN1)/[N+](=C/c1ccc(Cl)cc1)[CH-]c1ccc(Cl)cc1`: the GI50 in the experiment with BT-549 is > 100 µM (inactive); with EKVX it was > 100 µM (inactive); with K562 it was 41.7 µM (inactive); with KM12, > 100 µM (inactive); in the experiment with LOX IMVI, 51.6 µM (inactive); in the experiment on MCF7, > 100 µM (inactive). In addition, the GI50 with MDA-MB-231, in the experiment with MDA-MB-435, in the experiment with MDA-N, in the experiment with Malme-3M, with NCI-H226 and in the experiment with OVCAR-5 was > 100 µM (inactive) throughout. The GI50 is > 100 µM (inactive) in the experiment with SF-268; > 100 µM (inactive) in the experiment with SF-539; > 100 µM (inactive) in the experiment with SK-MEL-28; 23.8 µM (inactive) with SK-MEL-5; > 100 µM (inactive) in the experiment with SK-OV-3; > 100 µM (inactive) with U-251.
As for `Cc1cc(C)n(C(C)(C(=O)Cc2ccccc2)n2nc(C)cc2C)n1`, the GI50 with EKVX, with HOP-92, in the experiment on K562, in the experiment on KM12, in the experiment on LOX IMVI and in the experiment with MCF7 was > 100 µM (inactive) throughout. The GI50 in the experiment with MDA-MB-231, in the experiment with MDA-MB-435, in the experiment on MDA-N, in the experiment with Malme-3M, with NCI-H226 and in the experiment with OVCAR-5 was > 100 µM (inactive) throughout. The GI50 with SF-268, in the experiment on SF-539, in the experiment with SK-MEL-28, in the experiment with SK-MEL-5, in the experiment on SK-OV-3 and in the experiment on T47D was > 100 µM (inactive) in each case. Besides, the GI50 in the experiment with U-251 is > 100 µM (inactive).
On to `Cc1[nH]c2ccccc2c1C1=CC(=O)N(c2ccccc2)C1=O`, for which the GI50 is 5.31 µM (inactive) in the experiment with BT-549; 16.8 µM (inactive) with EKVX; 7.74 µM (inactive) with HOP-92; 6.37 µM (inactive) with K562; 5.55 µM (inactive) with LOX IMVI; 5.28 µM (inactive) in the experiment with MCF7. In addition, the GI50 with MDA-MB-231 was 28.2 µM (inactive); in the experiment on MDA-MB-435 it was 15.6 µM (inactive); with Malme-3M, 13.9 µM (inactive); in the experiment on NCI-H226, 19 µM (inactive); in the experiment on OVCAR-5 it was 23.1 µM (inactive); with SF-268, 15.8 µM (inactive). Also, the GI50 is 10.8 µM (inactive) in the experiment with SF-539; 6.46 µM (inactive) in the experiment on SK-MEL-28; 8 µM (inactive) with SK-MEL-5; 34.3 µM (inactive) in the experiment with SK-OV-3; 17.3 µM (inactive) in the experiment on U-251.
`CCN1CCC(O)(/C=C/c2cccc(C)c2)C(C(=O)/C=C/c2cccc(C)c2)C1` (stereo unspecified): the GI50 in the experiment on EKVX was 2.04 µM (inactive); in the experiment with HOP-92, 2.17 µM (inactive); with K562 it was 2.98 µM (inactive); in the experiment on KM12, 1.56 µM (inactive); in the experiment on LOX IMVI, 2.17 µM (inactive); in the experiment on MCF7, 1.9 µM (inactive). Further, the GI50 in the experiment on MDA-MB-231 was 3.35 µM (inactive); in the experiment on MDA-MB-435, 2.02 µM (inactive); with MDA-N it was 2.66 µM (inactive); with Malme-3M, 1.57 µM (inactive); with NCI-H226, 2.42 µM (inactive); with OVCAR-5 it was 2.64 µM (inactive). Besides, the GI50 was 1.74 µM (inactive) in the experiment on SF-268; 2.17 µM (inactive) with SF-539; 2.19 µM (inactive) with SK-MEL-28; 1.88 µM (inactive) in the experiment with SK-MEL-5; 3.35 µM (inactive) with SK-OV-3; 2.7 µM (inactive) with T47D. The GI50 with U-251 was 1.72 µM (inactive).
Regarding `CN(C)c1ccc(/C=N/NC(=O)c2cnc3ccccc3c2)cc1`, the GI50 in the experiment on BT-549 is 94 µM (inactive); in the experiment on EKVX, 58.6 µM (inactive); in the experiment with HOP-92 it was 49.4 µM (inactive); in the experiment with K562 it was > 100 µM (inactive); with KM12, 38.5 µM (inactive); with LOX IMVI it was > 100 µM (inactive). Further, the GI50 in the experiment with MCF7 is > 100 µM (inactive); in the experiment on MDA-MB-231, 37.8 µM (inactive); with MDA-MB-435, 4.03 µM (inactive); in the experiment on MDA-N, 4.71 µM (inactive); with Malme-3M, 18.6 µM (inactive); in the experiment with NCI-H226 it was > 100 µM (inactive). The GI50 in the experiment with OVCAR-5 was > 100 µM (inactive); in the experiment with SF-268 it was 18 µM (inactive); in the experiment with SF-539 it was 52 µM (inactive); with SK-MEL-28, > 100 µM (inactive); with SK-MEL-5 it was > 100 µM (inactive); with SK-OV-3 it was 26.5 µM (inactive). Further, the GI50 in the experiment with U-251 is 38.7 µM (inactive).
`CC1OC2(CC(OCc3ccccc3)C1OCc1ccccc1)OCCO2` (stereo unspecified): the GI50 with BT-549 was 59 µM (inactive); in the experiment on EKVX, 35.6 µM (inactive); in the experiment on HOP-92 it was 49.9 µM (inactive); in the experiment with K562, 77.8 µM (inactive); with KM12, 63.7 µM (inactive); in the experiment on LOX IMVI, 33.6 µM (inactive). In addition, the GI50 with MCF7 is 66.2 µM (inactive); in the experiment on MDA-MB-231, 37 µM (inactive); in the experiment with MDA-MB-435, 57 µM (inactive); in the experiment on MDA-N it was 55.1 µM (inactive); in the experiment on Malme-3M, > 100 µM (inactive); in the experiment on NCI-H226 it was 82.6 µM (inactive). Also, the GI50 with OVCAR-5 is 51.3 µM (inactive); in the experiment with SF-268 it was 60.1 µM (inactive); in the experiment with SF-539 it was > 100 µM (inactive); with SK-MEL-28, > 100 µM (inactive); in the experiment with SK-MEL-5, 33 µM (inactive); in the experiment with SK-OV-3, > 100 µM (inactive). Moreover, in the experiment on U-251, the GI50 was 44.5 µM (inactive).
For `CC(C)(C)CC(C)(C)NC(=S)NO`, the GI50 with EKVX was > 100 µM (inactive); in the experiment on HOP-92, 63.7 µM (inactive); with K562, > 100 µM (inactive); with KM12 it was > 100 µM (inactive); in the experiment on LOX IMVI, > 100 µM (inactive); with MCF7 it was > 100 µM (inactive). Further, the GI50 in the experiment on MDA-MB-231, in the experiment on MDA-MB-435, with MDA-N, in the experiment on Malme-3M, with NCI-H226 and in the experiment on OVCAR-5 was > 100 µM (inactive) throughout. Moreover, the GI50 in the experiment with SF-268, in the experiment with SF-539, in the experiment with SK-MEL-28, in the experiment with SK-MEL-5, in the experiment with SK-OV-3 and in the experiment on T47D was > 100 µM (inactive) throughout.
For the compound `OCC1C2CCC3(OCCO3)C12` (stereo unspecified), the GI50 in the experiment on BT-549 is 20.6 µM (inactive); in the experiment with EKVX, > 100 µM (inactive); in the experiment with HOP-92, > 100 µM (inactive); with K562, > 100 µM (inactive); in the experiment with KM12, > 100 µM (inactive); in the experiment on LOX IMVI it was > 100 µM (inactive). Moreover, the GI50 with MCF7 is > 100 µM (inactive); in the experiment on MDA-MB-231, > 100 µM (inactive); in the experiment with MDA-MB-435, > 100 µM (inactive); in the experiment with MDA-N, > 100 µM (inactive); in the experiment with Malme-3M it was 57.3 µM (inactive); in the experiment on NCI-H226, > 100 µM (inactive). Moreover, the GI50 in the experiment on OVCAR-5, in the experiment on SF-268, in the experiment with SF-539, in the experiment with SK-MEL-28, in the experiment with SK-MEL-5 and with SK-OV-3 was > 100 µM (inactive) throughout. In addition, the GI50 in the experiment with U-251 was > 100 µM (inactive).
Take `COc1ccc(OC)c(C#Cc2ccc(OC)c(C(=O)NCCc3ccc(F)cc3)c2)c1`: the GI50 with BT-549 was > 100 µM (inactive); in the experiment on EKVX it was > 100 µM (inactive); in the experiment on K562 it was 2.39 µM (inactive); in the experiment on KM12, 4.13 µM (inactive); with LOX IMVI it was > 100 µM (inactive); in the experiment on MCF7, 6.5 µM (inactive). For the same compound, the GI50 in the experiment with MDA-MB-435 is 1.23 µM (inactive); with OVCAR-5 it was > 100 µM (inactive); with SF-268 it was > 100 µM (inactive); in the experiment on SK-MEL-28, 1.73 µM (inactive); in the experiment on SK-MEL-5, 4.42 µM (inactive); in the experiment with T47D, 2.86 µM (inactive). For the same compound, the GI50 in the experiment on U-251 was 6.07 µM (inactive).

The record behind these values is ChEMBL document CHEMBL1201862, “PubChem BioAssay data set” (2004).
